System: HT-29 cells
Assay: Comet assay (single cell gel electrophoresis), genotoxic potential
Type: cell-based, Human
Conditions: concentration corresponding to quercetin 70 µM

O=c1c(O)c(-c2ccc(O)c(O)c2)oc2cc(O)cc(O)c12 [quercetin]
genotoxic effect / DNA integrity: genotoxic effect

Source: EP3673920A1, “POLYPHENOL-PEPTIDE CONJUGATES FOR NUCLEAR-TARGETED DELIVERY” (Universität Wien, priority 2018, dated 2020)
